{
  "source": "patent US9110063B2",
  "about": "“Assay methods for the determination of FKBPL expression level in the context of breast cancer” (The Queen's University of Belfast, priority 2009, dated 2015)",
  "key": {"MCF7 cells [1]": {"system": "MCF7 cells", "assay": "Clonogenic assay after FKBPL siRNA knockdown versus non-targeting control", "assay_type": "cell-based", "conditions": "16 days, versus non-targeting siRNA controls", "method": "MCF7 cells were transfected with siControl non-targeting siRNA #1 (Dharmacon, Cat no. D-001210-01-20) or FKBPL targeted siRNA (Ambion, Cat no. 16104). Briefly, 1×10^5 MCF7 cells were seeded into 35 mm dishes and incubated at 37° C. for 24 h. To transfect, in one tube 6.4 μl of either siControl non-targeting siRNA or FKBPL targeted siRNA (2 μM) was added to 160 μl OptiMEM (Invitrogen) and in another tube 4 μl Oligofectamine (Invitrogen, Cat no. 12252-011) was added to 30 μl OptiMEM. Both tubes were incubated at room temperature for 5 min. Both tube contents were mixed and incubated at room temperature for 20 min. During incubation, 800 μl prewarmed complete DMEM was added to the cells then 200 μl transfection mix was added dropwise and the dishes incubated at 37° C. for 72 h. Cells were then plated at a density of 1000 and 2000 cells/well in a 6-well plate containing DMEM+10% FCS and incubated at 37° C. for 24 h. […] In both experiments, colonies were fixed and stained with 0.4% Crystal Violet/70% methanol then counted."}, "MCF7 cells [2]": {"system": "MCF7 cells", "assay": "Clonogenic assay, FKBPL-overexpressing MCF7 clones versus parental controls", "assay_type": "cell-based", "conditions": "16 days, colony count", "method": "Cells were plated at a density of 500 and 1000 cells/well in a 6-well plate containing DMEM+10% FCS and incubated at 37° C. for 24 h. […] In both experiments, colonies were fixed and stained with 0.4% Crystal Violet/70% methanol then counted."}, "MCF7 parental cells": {"system": "MCF7 parental cells", "assay": "Western blot of FKBPL and ER protein after 17-β-estradiol", "assay_type": "cell-based", "conditions": "10^−8M, 24 h, versus DMSO vehicle", "method": "To determine whether FKBPL itself could be regulated by oestrogen, 2×10^5 MCF7 parental cells were seeded into 35 mm dishes with phenol red-free DMEM+10% charcoal stripped FCS and incubated at 37° C. for 24 h. The medium was replaced with phenol red-free DMEM+10% charcoal-stripped FCS containing DMSO as vehicle control or 10^−8M 17-β-estradiol (Sigma, Cat no. E2758) and incubated for 24 h. Cells were lysed in 250 μl 2× laemmli buffer (Sigma) and subjected to SDS-PAGE electrophoresis using the XCell Surelock Mini-cell system (Invitrogen), transferred onto nitrocellulose membranes, blocked for 1 h at room temperature with 1% skim milk blocking solution and probed with FKBPL rabbit polyclonal (ProteinTech, Cat no. 10060-1-AP) at a dilution of 1:2000, ER rabbit monoclonal (Millipore, Cat no. 07-662) at a dilution of 1:1000 and GAPDH rabbit monoclonal (Sigma, Cat no. G9545) at a dilution of 1:5000. The blot was then probed with corresponding anti-rabbit IgG HRP-linked whole antibody secondary (GE Healthcare, Cat no. NA934V) or anti-mouse IgG HRP-linked whole antibody secondary (GE Healthcare, Cat no. NA931V) at a dilution of 1:10000. Antibody binding was detected using Supersignal West Pico Chemiluminescent Substrate (Pierce, Cat no. 34080)."}, "[3]": {"system": "oestrogen receptor positive (ER+) patients", "conditions": "cited from earlier work"}},
  "data": [
    {"smiles": "C[C@]12CC[C@@H]3c4ccc(O)cc4C[C@@H](CCCCCCCCC[S+]([O-])CCCC(F)(F)C(F)(F)F)[C@H]3[C@@H]1CC[C@@H]2O", "note": "(some centres unmarked) [fulvestrant, Fulvestrant]", "values": [
      {"measurement": "Resistance of MCF-7 cells after FKBPL knock-down", "setting": "MCF7 cells [1]; 2.5 nM fulvestrant", "result": "dramatically increased the resistance"},
      {"measurement": "FKBPL-overexpressing clones more sensitive than parental controls", "setting": "MCF7 cells [2]; 2.5 nM fulvestrant", "result": "up to 99%"}
    ]},
    {"smiles": "C[C@]12CC[C@@H]3c4ccc(O)cc4CC[C@H]3[C@@H]1CC[C@@H]2O", "note": "[17-β-estradiol]", "values": [
      {"measurement": "ER levels", "setting": "MCF7 parental cells", "result": "decrease"},
      {"measurement": "FKBPL protein expression", "setting": "MCF7 parental cells", "result": "upregulated"}
    ]},
    {"smiles": "CC/C(=C(\\c1ccccc1)c1ccc(OCCN(C)C)cc1)c1ccccc1", "note": "[tamoxifen, Tamoxifen]", "values": [
      {"measurement": "Resistance of MCF-7 cells after FKBPL knock-down", "setting": "MCF7 cells [1]; 1 μM tamoxifen", "result": "dramatically increased the resistance"},
      {"measurement": "FKBPL-overexpressing cells more sensitive than parental controls", "setting": "MCF7 cells [2]; 1 μM tamoxifen", "result": "up to 90%"},
      {"measurement": "ER+ patients showing a response", "setting": "[3]; ER+ breast cancer patients", "result": "around 60%"},
      {"measurement": "ER+ tumours failing to respond to or developing resistance", "setting": "[3]; ER+ tumours (non-responder subjects)", "result": "up to 40%"}
    ]}
  ]
}
